“And” between values parts separate entries of the source, which are not always exact repeats. Identical values can stand only once. Like-named read-outs stand apart in the source and are kept apart here.
Key:
Format in all cases: in vivo
corn = conditions: post-emergence
Method: (§1) The herbicidal activity of the active substances or active substance mixtures was scored visually with the aid of the treated parcels in comparison with untreated control parcels. Damage to and development of all above-ground parts of plants was recorded here. Scoring was carried out on a percentage scale (100% action=all plants died; 50% action=50% of the plants and green plant parts died; 0% action=no discernible action=like control parcels. The mean of the scoring values of 4 parcels in each case was taken.
(§2) Crop plants were raised outdoors under natural outdoor conditions on plots in which seeds or rhizome sections of typical harmful plants had been sown or the natural weed infestation was used. The treatment with the compositions according to the invention was carried out after the emergence of the harmful plants and the crop plants, as a rule in the 2 to 4-leaf stage; in some cases (as indicated) the application of individual active substances or active substance combinations was carried out pre-emergence (cf. Example 1) or as a sequence treatment, in some cases pre-emergence and/or post-emergence.
(§3) After the application, e.g. 2, 4, 6 and 8 weeks after application, the action of the preparations was scored visually in comparison with untreated controls (cf. score in Example 1). […] The crop plants, however, were not damaged or were only insignificantly damaged as a result of the treatment with the herbicidal compositions.

Digitaria sanguinalis = experiment: Herbicidal action, visual scoring; conditions: post-emergence, scoring 4 weeks after application
Method: as §1
(§4) Seeds or rhizome pieces of monocotyledonous and dicotyledonous weeds are placed in sandy loam soil in pots, covered with soil and grown in the greenhouse under good growth conditions (temperature, humidity, water supply). Three weeks after sowing, the test plants in the three-leaf stage are treated with the compositions according to the invention. The compositions according to the invention which are formulated as wettable powders or as emulsion concentrates are sprayed in various dosages on the green parts of the plants at an application rate of 600 to 800 l of water/ha (converted). After the test plants have remained in the greenhouse for about 3 to 4 weeks under optimal growth conditions, the effect of the products is scored visually by comparison with untreated controls. When applied post-emergence, too, the compositions according to the invention have a good herbicidal activity against a broad spectrum of economically important grass weeds and broad-leaved weeds.
as §2, §3

[1] = tested on: CHEAL = Chenopodium album; experiment: Herbicidal action, visual scoring; conditions: Table 9, post-emergence, scoring 3 weeks after application, g of A.S./ha by row: r6 120, r7 60, r8 30, r9 15, r10 60, r11 30, r12 15, r13 30 + 30, r14 15 + 30, r15 30 + 15, r16 2000, r17 1000, r18 500, r19 30 + 1000, r20 15 + 1000, r21 30 + 500
Method: as §1, §4, §2, §3

Ipomoea purpurea = experiment: Herbicidal action, visual scoring; conditions: Table 1, post-emergence, scoring 3 weeks after application, g of A.S./ha: 45, 60, 75, 1000, 2000, 3000, 75 + 1000
Method: as §1, §4, §2, §3

[2] = tested on: POLCO = Polygonum convolvulus; experiment: Herbicidal action, visual scoring; conditions: Table 15; post-emergence; scoring 4 weeks after application; g of A.S./ha by row: r6 30, r7 15, r8 7.5, r9 900, r10 450, r12 600, r14 20, r16 30 + 450, r17 7.5 + 900, r18 30 + 600, r19 7.5 + 600, r20 15 + 20, r21 7.5 + 20
Method: as §1, with “taken. […]” for “taken.”
as §2, §3

SOLNI = experiment: Herbicidal action, visual scoring; conditions: Table 10, post-emergence, scoring 3 weeks after application, g of A.S./ha by row: r7 120, r8 60, r9 30, r10 15, r11 12, r12 6, r13 3, r14 30 + 6, r16 15 + 6, r18 30 + 3
Method: as §1, §4, §2, §3

[3] = Table 9, scoring 3 weeks after application, g of A.S./ha by row: r6 120, r7 60, r8 30, r9 15, r10 60, r11 30, r12 15, r13 30 + 30, r14 15 + 30, r15 30 + 15, r16 2000, r17 1000, r18 500, r19 30 + 1000, r20 15 + 1000, r21 30 + 500

`CCc1cccc(CC)c1N(COC)C(=O)CCl` [(B1.1.1), alachlor] was tested, and the Damage on corn (corn; Table 17, scoring 4 weeks after application, g of A.S./ha by row: r6 60, r7 30, r8 15, r9 2000, r10 1000, r11 500, r12 15 + 1000, r13 30 + 500, r14 2000, r15 1000, r16 500, r17 30 + 500, r18 15 + 500, r19 15 + 1000) was 0%, the “Herbicidal action Digitaria sanguinalis” value (Digitaria sanguinalis; Table 17, g of A.S./ha by row: r6 60, r7 30, r8 15, r9 2000, r10 1000, r11 500, r12 15 + 1000, r13 30 + 500, r14 2000, r15 1000, r16 500, r17 30 + 500, r18 15 + 500, r19 15 + 1000, 500 g A.S./ha) was 40% and the “Herbicidal action Digitaria sanguinalis” value (Digitaria sanguinalis; Table 17, g of A.S./ha by row: r6 60, r7 30, r8 15, r9 2000, r10 1000, r11 500, r12 15 + 1000, r13 30 + 500, r14 2000, r15 1000, r16 500, r17 30 + 500, r18 15 + 500, r19 15 + 1000, 1000 g A.S./ha) was 50%. For the same molecule, the “Herbicidal action Digitaria sanguinalis” value (Digitaria sanguinalis; Table 17, g of A.S./ha by row: r6 60, r7 30, r8 15, r9 2000, r10 1000, r11 500, r12 15 + 1000, r13 30 + 500, r14 2000, r15 1000, r16 500, r17 30 + 500, r18 15 + 500, r19 15 + 1000, 2000 g A.S./ha) was 65%.
For `CCc1cccc(C)c1N(C(=O)CCl)C(C)COC` (stereo not shown) [(B1.1.2), metolachlor], the Damage on corn (corn; [3]) was 0% and the “Herbicidal action CHEAL” value [1] was 0%.
With `CCNc1nc(Cl)nc(NC(C)C)n1` [(B1.2.1), atrazine] the Damage on corn (corn; Table 1, scoring 3 weeks after application, g of A.S./ha: 45, 60, 75, 1000, 2000, 3000, 75 + 1000) was 0%, the “Herbicidal action against Ipomoea purpurea” value (Ipomoea purpurea; 1000 g active substance per ha) was 70% and the “Herbicidal action against Ipomoea purpurea” value (Ipomoea purpurea; 2000 g active substance per ha) was 85%. For the same molecule, the “Herbicidal action against Ipomoea purpurea” value (Ipomoea purpurea; 3000 g active substance per ha) was 90%.
`CCNc1nc(Cl)nc(NC(C)(C)C#N)n1` [(B1.2.3), cyanazine] was tested, and the Damage on corn (corn; Table 14, scoring 4 weeks after application, g of A.S./ha by row: r6 30, r7 15, r8 7.5, r9 2200, r10 1100, r11 550, r12 7.5 + 2200, r13 7.5 + 1100) was 12% and 5% and 15%.
`CC(C)N(C(=O)COc1nnc(C(F)(F)F)s1)c1ccc(F)cc1` [(B1.2.7), fluthiamid] was tested, and the Damage on corn (corn; Table 15, scoring 4 weeks after application, g of A.S./ha by row: r6 30, r7 15, r8 7.5, r9 900, r10 450, r12 600, r14 20, r16 30 + 450, r17 7.5 + 900, r18 30 + 600, r19 7.5 + 600, r20 15 + 20, r21 7.5 + 20) was 0% and the “Herbicidal action Polygonum convolvulus” value [2] was 25%.
With `COc1cc(OC)nc(NC(=O)NS(=O)(=O)c2ncccc2C(=O)N(C)C)n1` [(B1.3.1), nicosulfuron] the Damage on corn (corn; [3]) was 0%, the “Herbicidal action CHEAL” value ([1]; 15 g active substance/ha) was 55% and the “Herbicidal action CHEAL” value ([1]; 30 g active substance/ha) was 65%. The “Herbicidal action CHEAL” value ([1]; 60 g active substance/ha) was 90%.
With `CCS(=O)(=O)c1cccnc1S(=O)(=O)NC(=O)Nc1nc(OC)cc(OC)n1` [(B1.3.2), rimsulfuron] the “Herbicidal action SOLNI” value (SOLNI; 3 g active substance per ha) was 35%, the “Herbicidal action SOLNI” value (SOLNI; 6 g active substance per ha) was 45% and the “Herbicidal action SOLNI” value (SOLNI; 12 g active substance per ha) was 60%.
`CS(=O)(=O)c1ccc(C(=O)C2C(=O)CCCC2=O)c(Cl)c1` [(B1.4.2), sulcotrione] showed a Damage on corn (corn; Table 11, scoring 3 weeks after application, g of A.S./ha by row: r6 120, r7 60, r8 30, r9 15, r10 2000, r11 1000, r12 500, r13 30 + 1000, r14 15 + 1000, r15 30 + 500, r16 600, r17 300, r18 150, r19 30 + 300, r20 15 + 300, r21 30 + 150) of 0%.
`CS(=O)(=O)c1cc(Cl)ccc1C(=O)c1cnoc1C1CC1` [(B1.4.6), isoxachlortole] was tested, and the Damage on corn (corn; Table 18, scoring 4 weeks after application, g of A.S./ha by row: r6 45, r7 22.5, r8 12.5, r9 25, r12 12.5 + 25, r13 12.5 + 12.5) was 12%, the “Herbicidal action Digitaria sanguinalis” value (Digitaria sanguinalis; Table 18, g of A.S./ha by row: r6 45, r7 22.5, r8 12.5, r9 25, r10 12.5, r12 12.5 + 25, r13 12.5 + 12.5, 12.5 g of A.S./ha) was 30% and the “Herbicidal action Digitaria sanguinalis” value (Digitaria sanguinalis; Table 18, g of A.S./ha by row: r6 45, r7 22.5, r8 12.5, r9 25, r10 12.5, r12 12.5 + 25, r13 12.5 + 12.5, 25 g of A.S./ha) was 45%.
In the case of `COc1cc(OC)n2nc(S(=O)(=O)Nc3c(Cl)ccc(C)c3Cl)nc2n1` [(B1.5.1), metosulam], the “Herbicidal action Polygonum convolvulus” value [2] is reported as 55%.
For `O=C(O)c1nc(Cl)ccc1Cl` [(B2.3.6), clopyralid], the Damage on corn (corn; Table 19, scoring 3 weeks after application, g of A.S./ha by row: r6 60, r7 30, r8 15, r9 120, r10 60, r11 30, r12 30 + 30, r13 30 + 60, r14 60 + 30) was 0% and 3%.
`COc1nc(NC(=O)NS(=O)(=O)c2ccccc2C(F)(F)F)nc(C(F)(F)F)n1` [(B2.4.5), tritosulfuron] was tested, and the Damage on corn (corn; Table 7, scoring 3 weeks after application, g of A.S./ha by row: r6 15, r7 30, r8 45, r9 60, r10 2.5, r11 5, r12 15 + 2.5, r13 15 + 5) was 1%.
With `Cc1cc(Cl)ccc1OCC(=O)O` [(B2.5.2), MCPA] the Damage on corn (corn; Table 16, scoring 4 weeks after application, g of A.S./ha: 60, 30, 15, 1500, 750, 375, 30 + 750, 30 + 375, 15 + 750, 60 + 375) was 6% and 0% and 10%.

— patent US6486096B1, “Herbicidal compositions with acylated aminophenylsulfonylureas” (priority 1998, dated 2002)
